Read-outs that look alike come from different tables or passages of the source. Where a SMILES comes first, the peptide text is derived from it. Side-chain parts run from the residue outwards. [ ]: non-standard residue; d: D form. The star is where a group is joined. DOTA = O=C(O)CN1CCN(CC(=O)O)CCN(CC(=O)*)CCN(CC(=O)O)CC1; 2Nal = N[C@@H](Cc1ccc2ccccc2c1)C(=O)O; dNMeOrn = CN[C@H](CCCN)C(=O)O; 4Abz = Nc1ccc(C(=O)O)cc1
Assay: Biodistribution in Daudi xenograft bearing mice
Format: in vivo, mouse
Conditions: female, CB-17 SCID, mouse, iv, total radioactivity; for tissue uptake at 6 h: 6h p.i.; for tissue uptake at 6 h / tissue uptake at 48 h: i.v., n=4-5; for tissue uptake at 6 h / tissue uptake at 48 h / tissue to tissue ratio at 48 h: means ± SD; for tissue uptake at 48 h / tissue to tissue ratio at 48 h: 48h p.i.; for tissue uptake at 1 h: 1h p.i., coinjection of 50 µg AMD3100/animal, n=1; for tissue to tissue ratio at 48 h: n=4-5 animals
Method in brief: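 Female CB-17 SCID mice with Daudi xenografts (n=4-5) received 5-10 MBq (0.08-0.11 nmol) ^68Ga- or ^177Lu-labelled ligand i.v.; blocking by coinjected 50 µg AMD3100. Organs counted by γ-counter at 1, 6 and 48 h p.i.; %ID/g (mean ± SD).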

[1] = adrenals, read-out: Biodistribution adrenals
[2] = blood, read-out: Biodistribution blood
[3] = colon, read-out: Biodistribution colon
[4] = femur, read-out: Biodistribution femur
[5] = heart, read-out: Biodistribution heart
[6] = kidney, read-out: Biodistribution kidney
[7] = liver, read-out: Biodistribution liver
[8] = lung, read-out: Biodistribution lung
[9] = muscle, read-out: Biodistribution muscle
[10] = pancreas, read-out: Biodistribution pancreas
[11] = small intestine, read-out: Biodistribution small intestine
[12] = spleen, read-out: Biodistribution spleen
[13] = stomach, read-out: Biodistribution stomach
[14] = tumor (Daudi xenograft), read-out: Biodistribution tumor (Daudi xenograft)

## C[C@@H](NC(=O)[C@@H](CCCNC(=N)N)NC(=O)CN1CCN(CC(=O)O)CCN(CC(=O)O)CCN(CC(=O)O)CC1)C(=O)Nc1ccc(C(=O)NCCC[C@@H]2C(=O)N[C@@H](CCCNC(=N)N)C(=O)N[C@@H](Cc3ccc4ccccc4c3)C(=O)NCC(=O)N[C@H](Cc3ccc(O)cc3)C(=O)N2C)cc1 [[^177Lu]DOTA-r-a-ABA-CPCR4, metal not drawn] (cyclo([2Nal]G[dY][dNMeOrn]([4Abz-dA-dR-DOTA])R))
[1]
  tissue uptake at 6 h: 0.51 ± 0.12 %ID/g
  tissue uptake at 48 h: 0.33 ± 0.08 %ID/g
adrenals, with AMD3100, 50 µg per animal, coinjected (CXCR4 competition), read-out: Biodistribution adrenals, + AMD3100
  tissue uptake at 1 h: 1.22 %ID/g
[2]
  tissue uptake at 6 h: 0.05 ± 0.01 %ID/g
  tissue uptake at 48 h: 0.01 %ID/g
blood, with AMD3100, 50 µg per animal, coinjected (CXCR4 competition), read-out: Biodistribution blood, + AMD3100
  tissue uptake at 1 h: 1.9 %ID/g
[3]
  tissue uptake at 6 h: 0.65 ± 0.3 %ID/g
  tissue uptake at 48 h: 0.44 ± 0.22 %ID/g
colon, with AMD3100, 50 µg per animal, coinjected (CXCR4 competition), read-out: Biodistribution colon, + AMD3100
  tissue uptake at 1 h: 0.74 %ID/g
[4]
  tissue uptake at 6 h: 0.3 ± 0.05 %ID/g
  tissue uptake at 48 h: 0.29 ± 0.05 %ID/g
femur, with AMD3100, 50 µg per animal, coinjected (CXCR4 competition), read-out: Biodistribution femur, + AMD3100
  tissue uptake at 1 h: 0.74 %ID/g
heart, read-out: Biodistribution heart, + AMD3100
  tissue uptake at 1 h: 1.07 %ID/g
[5]
  tissue uptake at 6 h: 0.13 ± 0.02 %ID/g
  tissue uptake at 48 h: 0.08 ± 0.01 %ID/g
[6]
  tissue uptake at 6 h: 7.1 ± 2.06 %ID/g
  tissue uptake at 48 h: 3.05 ± 0.15 %ID/g
kidney, with AMD3100, 50 µg per animal, coinjected (CXCR4 competition), read-out: Biodistribution kidney, + AMD3100
  tissue uptake at 1 h: 10.3 %ID/g
liver, read-out: Biodistribution liver, + AMD3100
  tissue uptake at 1 h: 5.46 %ID/g
[7]
  tissue uptake at 6 h: 11.3 ± 2.83 %ID/g
  tissue uptake at 48 h: 8.99 ± 1.62 %ID/g
lung, read-out: Biodistribution lung, + AMD3100
  tissue uptake at 1 h: 3.34 %ID/g
[8]
  tissue uptake at 6 h: 0.27 ± 0.06 %ID/g
  tissue uptake at 48 h: 0.19 ± 0.08 %ID/g
[9]
  tissue uptake at 6 h: 0.04 ± 0.01 %ID/g
  tissue uptake at 48 h: 0.02 %ID/g
muscle, with AMD3100, 50 µg per animal, coinjected (CXCR4 competition), read-out: Biodistribution muscle, + AMD3100
  tissue uptake at 1 h: 0.38 %ID/g
[10]
  tissue uptake at 6 h: 0.08 ± 0.02 %ID/g
  tissue uptake at 48 h: 0.07 ± 0.01 %ID/g
pancreas, with AMD3100, 50 µg per animal, coinjected (CXCR4 competition), read-out: Biodistribution pancreas, + AMD3100
  tissue uptake at 1 h: 0.61 %ID/g
[11]
  tissue uptake at 6 h: 0.3 ± 0.06 %ID/g
  tissue uptake at 48 h: 0.16 ± 0.11 %ID/g
Small intestine, with AMD3100, 50 µg per animal, coinjected (CXCR4 competition), read-out: Biodistribution small intestine, + AMD3100
  tissue uptake at 1 h: 1.36 %ID/g
[12]
  tissue uptake at 6 h: 1.41 ± 0.24 %ID/g
  tissue uptake at 48 h: 1.06 ± 0.33 %ID/g
spleen, with AMD3100, 50 µg per animal, coinjected (CXCR4 competition), read-out: Biodistribution spleen, + AMD3100
  tissue uptake at 1 h: 1.11 %ID/g
[13]
  tissue uptake at 6 h: 0.25 ± 0.07 %ID/g
  tissue uptake at 48 h: 0.19 ± 0.13 %ID/g
stomach, with AMD3100, 50 µg per animal, coinjected (CXCR4 competition), read-out: Biodistribution stomach, + AMD3100
  tissue uptake at 1 h: 2.46 %ID/g
[14]
  tissue uptake at 6 h: 13.6 ± 3.33 %ID/g
  tissue uptake at 48 h: 8.81 ± 0.99 %ID/g
Tumor (Daudi xenograft), with AMD3100, 50 µg per animal, coinjected (CXCR4 competition), read-out: Biodistribution tumor, + AMD3100
  tissue uptake at 1 h: 3.04 %ID/g
Tumor / blood, read-out: Tumor/organ ratio t/blood
  tissue to tissue ratio at 48 h: 949 ± 146
Tumor / colon, read-out: Tumor/organ ratio t/colon
  tissue to tissue ratio at 48 h: 20 ± 10
Tumor / heart, read-out: Tumor/organ ratio t/heart
  tissue to tissue ratio at 48 h: 111 ± 20
Tumor / kidney, read-out: Tumor/organ ratio t/kidney
  tissue to tissue ratio at 48 h: 2.9 ± 0.4
Tumor / liver, read-out: Tumor/organ ratio t/liver
  tissue to tissue ratio at 48 h: 1 ± 0.2
Tumor / lung, read-out: Tumor/organ ratio t/lung
  tissue to tissue ratio at 48 h: 47 ± 22
Tumor / muscle, read-out: Tumor/organ ratio t/muscle
  tissue to tissue ratio at 48 h: 413 ± 100
Tumor / small intestine, read-out: Tumor/organ ratio t/small intestine
  tissue to tissue ratio at 48 h: 55 ± 36
Tumor / spleen, read-out: Tumor/organ ratio t/spleen
  tissue to tissue ratio at 48 h: 8.3 ± 2.8
Tumor / stomach, read-out: Tumor/organ ratio t/stomach
  tissue to tissue ratio at 48 h: 46 ± 32

— paper PMC7381729, “A new class of PentixaFor- and PentixaTher-based theranostic agents with enhanced CXCR4-targeting efficiency” (Theranostics, 2020)
